Results on two compounds are retold here after ChEMBL document CHEMBL1152824, “A novel insertion sequence, ISPA26, in oprD of Pseudomonas aeruginosa is associated with carbapenem resistance” (2007).

Assay [1] has as its system Pseudomonas aeruginosa. Briefly: Antibacterial activity against Pseudomonas aeruginosa blood isolate 1 carrying insertion sequence ISPa26 by disk susceptibility test. In kind it is functional.
In assay [2] the test system is Pseudomonas aeruginosa. Kind of assay: Antibacterial activity against Pseudomonas aeruginosa tracheal aspirate isolate 12 carrying insertion sequence ISPa26 by disk susceptibility test. In kind it is functional.
Assay [3] concerns Pseudomonas aeruginosa. Briefly: Antibacterial activity against Pseudomonas aeruginosa tracheal aspirate isolate 7 carrying insertion sequence ISPa26 by disk susceptibility test. In kind it is functional.
The subject of assay [4] is Pseudomonas aeruginosa. Kind of assay: microbe, parasite or virus in culture.
Description: Antibacterial activity against Pseudomonas aeruginosa cystic fibrosis sputum isolate 529 carrying insertion sequence ISPa26 by disk susceptibility test
In assay [5] the test system is Pseudomonas aeruginosa. Kind of assay: Antibacterial activity against Pseudomonas aeruginosa pus isolate 6 carrying insertion sequence ISPa26 by disk susceptibility test. The format is functional.
Assay [6] deals with Pseudomonas aeruginosa. Kind of assay: Antibacterial activity against Pseudomonas aeruginosa tracheal aspirate isolate 8 carrying insertion sequence ISPa26 inserted into oprD gene by disk susceptibility test. In kind it is functional.
The subject of assay [7] is Pseudomonas aeruginosa. Briefly: Antibacterial activity against Pseudomonas aeruginosa cystic fibrosis sputum isolate 286 carrying insertion sequence ISPa26 by disk susceptibility test. In kind it is functional.

≈ marks a conversion by molar mass, not a printed value.

As to `C[C@@H](O)[C@H]1C(=O)N2C(C(=O)O)=C(SCCNC=N)C[C@H]12` [IMIPENEM ANHYDROUS], the MIC in assay [1] was greater than 32 µg/mL; in assay [2] it was 2 µg/mL (≈ 6.68 µM); in assay [3], greater than 32 µg/mL; in assay [4], 1 µg/mL (≈ 3.34 µM); in assay [5], greater than 32 µg/mL; in assay [6] it was greater than 32 µg/mL. For the same compound, the MIC in assay [7] was greater than 32 µg/mL.

Consider `C[C@@H](O)[C@H]1C(=O)N2C(C(=O)O)=C(S[C@@H]3CN[C@H](C(=O)N(C)C)C3)[C@H](C)[C@H]12` [MEROPENEM], for which the MIC in assay [1] is greater than 32 µg/mL; in assay [2], 3 µg/mL (≈ 7.82 µM); in assay [3], 6 µg/mL (≈ 15.6 µM); in assay [4] it was 2 µg/mL (≈ 5.22 µM); in assay [5] it was 6 µg/mL (≈ 15.6 µM); in assay [6], greater than 32 µg/mL. The same compound came in with an MIC in assay [7] greater than 32 µg/mL.
